The results in this text go back to article PMC10501769 (eLife, 2023).

In the experiment the target is Rv0158 (Mycobacterium tuberculosis, UniProt O53641). Description: biochemical.
Chain of Rv0158 (O53641 entry or part of it): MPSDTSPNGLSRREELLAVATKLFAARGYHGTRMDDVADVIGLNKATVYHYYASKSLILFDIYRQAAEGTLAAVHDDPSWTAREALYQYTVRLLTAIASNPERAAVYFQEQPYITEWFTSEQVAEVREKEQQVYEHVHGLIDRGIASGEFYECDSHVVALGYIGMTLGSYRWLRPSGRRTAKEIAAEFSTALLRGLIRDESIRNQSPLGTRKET
By Kd is commonly meant a measure of binding affinity in units of concentration. Read a high Kd as weaker binding. In turn, `CCCCCCCCCCCCCCCC(=O)SCCNC(=O)CCNC(=O)[C@H](O)C(C)(C)COP(=O)(O)OP(=O)(O)OC[C@H]1O[C@@H](n2cnc3c(N)ncnc32)[C@H](O)[C@@H]1OP(=O)(O)O` [C16-CoA] yielded a Kd of 1800 ± 500 nM.

Regarding `CCCCCCCCCCCCCCCCCC(=O)SCCNC(=O)CCNC(=O)[C@H](O)C(C)(C)COP(=O)(O)OP(=O)(O)OC[C@H]1O[C@@H](n2cnc3c(N)ncnc32)[C@H](O)[C@@H]1OP(=O)(O)O` [C18-CoA], the affinity, expressed as Kd, was 2800 ± 800 nM.

`CC(C(=O)O)C(=O)SCCNC(=O)CCNC(=O)[C@H](O)C(C)(C)COP(=O)(O)OP(=O)(O)OC[C@H]1O[C@@H](n2cnc3c(N)ncnc32)[C@H](O)[C@@H]1OP(=O)(O)O` (stereo partly drawn) [Methylmalonyl-CoA] gave a Kd of 900 ± 300 nM.

In turn, `CCCCCCCCCCCC(=O)SCCNC(=O)CCNC(=O)[C@H](O)C(C)(C)COP(=O)(O)OP(=O)(O)OC[C@H]1O[C@@H](n2cnc3c(N)ncnc32)[C@H](O)[C@@H]1OP(=O)(O)O` [C12-CoA] had a dissociation constant (Kd) of 1100 ± 600 nM.

Turning to `CC(C)(COP(=O)(O)OP(=O)(O)OC[C@H]1O[C@@H](n2cnc3c(N)ncnc32)[C@H](O)[C@@H]1OP(=O)(O)O)[C@@H](O)C(=O)NCCC(=O)NCCSC(=O)CC(=O)O` [Malonyl-CoA], the Kd was 2400 ± 1000 nM.

`CCCCCCCCCC(=O)SCCNC(=O)CCNC(=O)[C@H](O)C(C)(C)COP(=O)(O)OP(=O)(O)OC[C@H]1O[C@@H](n2cnc3c(N)ncnc32)[C@H](O)[C@@H]1OP(=O)(O)O` [Decanoyl-CoA] came in with a Kd of 6400 ± 1200 nM.
